According to patent US20240124417A1, “COMPOUNDS USEFUL AS IMMUNOMODULATORS” (Bristol-Myers Squibb Company, priority 2019, published 2024):

Target: T1, PD-1/PD-L1 (Homo sapiens, UniProt Q9NZQ7)
T1 construct: TVMV protease site linker (C); made in house; host or cells: HEK293T cells
Assay: PD-1/PD-L1 Homogenous Time-Resolved Fluorescence (HTRF) binding assay
Conditions: PD-L1-His 10 nM, PD-1-Ig 20 nM
Method in brief: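 Inhibitors pre-incubated 15 min with PD-L1-His extracellular domain (10 nM final) in dPBS with 0.1% BSA and 0.05% Tween-20, then PD-1-Ig (20 nM final) added for a further 15 min. Read-out by HTRF with europium cryptate anti-Ig (1 nM) and APC anti-His (20 nM). Related pairs: PD-1-Ig/PD-L2-His (20/5 nM), CD80-His/PD-L1-Ig (100/10 nM).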

T1 sequence (Q9NZQ7 18-239): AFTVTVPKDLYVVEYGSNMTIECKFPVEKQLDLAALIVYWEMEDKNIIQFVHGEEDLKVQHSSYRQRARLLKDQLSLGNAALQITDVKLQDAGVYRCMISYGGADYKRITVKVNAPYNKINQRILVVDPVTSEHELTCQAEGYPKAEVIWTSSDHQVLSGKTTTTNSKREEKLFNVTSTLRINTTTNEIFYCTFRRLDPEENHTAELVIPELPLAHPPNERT

Row | Structure (SMILES) | IC50
1 | Cc1c(COc2cc(OCc3cncc(C#N)c3)c(CNCc3cc(C)n(C)n3)cc2Cl)cccc1-c1cccc(OCCCN2CC[C@@H](O)C2)c1C [Example 2536, (R)-5-((4-chloro-2-((((1,5-dimethyl-1H-pyrazol-3-yl)methyl)amino)methyl)-5-((3′-(3-(3-hydroxypyrrolidin-1-yl)propoxy)-2,2′-dimethyl-[1,1′-biphenyl]-3-yl)methoxy)phenoxy)methyl)nicotinonitrile] | 7.4 nM
2 | Cc1c(COc2cc(OCc3cncc(C#N)c3)c(CNCc3cc4ccccn4n3)cc2Cl)cccc1-c1cccc(OCCCN2CC[C@@H](O)C2)c1C [Example 2537, (R)-5-((4-chloro-5-((3′-(3-(3-hydroxypyrrolidin-1-yl)propoxy)-2,2′-dimethyl-[1,1′-biphenyl]-3-yl)methoxy)-2-(((pyrazolo[1,5-a]pyridin-2-ylmethyl)amino)methyl)phenoxy)methyl)nicotinonitrile] | 6.5 nM
3 | Cc1c(COc2cc(OCc3cncc(C#N)c3)c(CNCc3cc(-c4ccccc4)on3)cc2Cl)cccc1-c1cccc(OCCCN2CC[C@@H](O)C2)c1C [Example 2538, (R)-5-((4-chloro-5-((3′-(3-(3-hydroxypyrrolidin-1-yl)propoxy)-2,2′-dimethyl-[1,1′-biphenyl]-3-yl)methoxy)-2-((((5-phenylisoxazol-3-yl)methyl)amino)methyl)phenoxy)methyl)nicotinonitrile] | 43.8 nM
4 | Cc1c(COc2cc(OCc3cncc(C#N)c3)c(CNCc3cocn3)cc2Cl)cccc1-c1cccc(OCCCN2CC[C@@H](O)C2)c1C [Example 2539, (R)-5-((4-chloro-5-((3′-(3-(3-hydroxypyrrolidin-1-yl)propoxy)-2,2′-dimethyl-[1,1′-biphenyl]-3-yl)methoxy)-2-(((oxazol-4-ylmethyl)amino)methyl)phenoxy)methyl)nicotinonitrile] | 0.7 nM
5 | Cc1nc(CNCc2cc(Cl)c(OCc3cccc(-c4cccc(OCCCN5CC[C@@H](O)C5)c4C)c3C)cc2OCc2cncc(C#N)c2)no1 [Example 2540, (R)-5-((4-chloro-5-((3′-(3-(3-hydroxypyrrolidin-1-yl)propoxy)-2,2′-dimethyl-[1,1′-biphenyl]-3-yl)methoxy)-2-((((5-methyl-1,2,4-oxadiazol-3-yl)methyl)amino)methyl)phenoxy)methyl)nicotinonitrile] | 3.1 nM
6 | Cc1c(COc2cc(OCc3cncc(C#N)c3)c(CN(C)Cc3cc(C)n(C)n3)cc2Cl)cccc1-c1cccc(OCCCN2CC[C@@H](O)C2)c1C [Example 2541, (R)-5-((4-chloro-2-((((1,5-dimethyl-1H-pyrazol-3-yl)methyl)(methyl)amino)methyl)-5-((3′-(3-(3-hydroxypyrrolidin-1-yl)propoxy)-2,2′-dimethyl-[1,1′-biphenyl]-3-yl)methoxy)phenoxy)methyl)nicotinonitrile] | 3.9 nM
7 | Cc1c(COc2cc(OCc3cncc(C#N)c3)c(CN(C)Cc3cc4ccccn4n3)cc2Cl)cccc1-c1cccc(OCCCN2CC[C@@H](O)C2)c1C [Example 2542, (R)-5-((4-chloro-5-((3′-(3-(3-hydroxypyrrolidin-1-yl)propoxy)-2,2′-dimethyl-[1,1′-biphenyl]-3-yl)methoxy)-2-((methyl(pyrazolo[1,5-a]pyridin-2-ylmethyl)amino)methyl)phenoxy)methyl)nicotinonitrile] | 3.9 nM
8 | Cc1c(COc2cc(OCc3cncc(C#N)c3)c(CN(C)Cc3cc(-c4ccccc4)on3)cc2Cl)cccc1-c1cccc(OCCCN2CC[C@@H](O)C2)c1C [Example 2543, (R)-5-((4-chloro-5-((3′-(3-(3-hydroxypyrrolidin-1-yl)propoxy)-2,2′-dimethyl-[1,1′-biphenyl]-3-yl)methoxy)-2-((methyl((5-phenylisoxazol-3-yl)methyl)amino)methyl)phenoxy)methyl)nicotinonitrile] | 192 nM
9 | Cc1c(COc2cc(OCc3cncc(C#N)c3)c(CN(C)Cc3cocn3)cc2Cl)cccc1-c1cccc(OCCCN2CC[C@@H](O)C2)c1C [Example 2544, (R)-5-((4-chloro-5-((3′-(3-(3-hydroxypyrrolidin-1-yl)propoxy)-2,2′-dimethyl-[1,1′-biphenyl]-3-yl)methoxy)-2-((methyl(oxazol-4-ylmethyl)amino)methyl)phenoxy)methyl)nicotinonitrile] | 1.6 nM
10 | Cc1nc(CN(C)Cc2cc(Cl)c(OCc3cccc(-c4cccc(OCCCN5CC[C@@H](O)C5)c4C)c3C)cc2OCc2cncc(C#N)c2)no1 [Example 2545, (R)-5-((4-chloro-5-((3′-(3-(3-hydroxypyrrolidin-1-yl)propoxy)-2,2′-dimethyl-[1,1′-biphenyl]-3-yl)methoxy)-2-((methyl((5-methyl-1,2,4-oxadiazol-3-yl)methyl)amino)methyl)phenoxy)methyl)nicotinonitrile] | 11.9 nM
11 | Cc1c(COc2cc(OCc3cncc(C#N)c3)c(CNCc3ncco3)cc2Cl)cccc1-c1cccc(OCCCN2CC[C@@H](O)C2)c1C [Example 2546, (R)-5-((4-chloro-5-((3′-(3-(3-hydroxypyrrolidin-1-yl)propoxy)-2,2′-dimethyl-[1,1′-biphenyl]-3-yl)methoxy)-2-(((oxazol-2-ylmethyl)amino)methyl)phenoxy)methyl)nicotinonitrile] | 1.8 nM
12 | Cc1c(COc2cc(OCc3cncc(C#N)c3)c(CNCc3cnco3)cc2Cl)cccc1-c1cccc(OCCCN2CC[C@@H](O)C2)c1C [Example 2547, (R)-5-((4-chloro-5-((3′-(3-(3-hydroxypyrrolidin-1-yl)propoxy)-2,2′-dimethyl-[1,1′-biphenyl]-3-yl)methoxy)-2-(((oxazol-5-ylmethyl)amino)methyl)phenoxy)methyl)nicotinonitrile] | 2.5 nM
13 | CCc1csc(CNCc2cc(Cl)c(OCc3cccc(-c4cccc(OCCCN5CC[C@@H](O)C5)c4C)c3C)cc2OCc2cncc(C#N)c2)n1 [Example 2548, (R)-5-((4-chloro-2-((((4-ethylthiazol-2-yl)methyl)amino)methyl)-5-((3′-(3-(3-hydroxypyrrolidin-1-yl)propoxy)-2,2′-dimethyl-[1,1′-biphenyl]-3-yl)methoxy)phenoxy)methyl)nicotinonitrile] | < 0.038 nM
14 | Cc1c(COc2cc(OCc3cncc(C#N)c3)c(CNCc3nc4ccccc4s3)cc2Cl)cccc1-c1cccc(OCCCN2CC[C@@H](O)C2)c1C [Example 2549, (R)-5-((2-(((benzo[d]thiazol-2-ylmethyl)amino)methyl)-4-chloro-5-((3′-(3-(3-hydroxypyrrolidin-1-yl)propoxy)-2,2′-dimethyl-[1,1′-biphenyl]-3-yl)methoxy)phenoxy)methyl)nicotinonitrile] | 33.2 nM
15 | Cc1c(COc2cc(OCc3cncc(C#N)c3)c(CN(C)Cc3ncco3)cc2Cl)cccc1-c1cccc(OCCCN2CC[C@@H](O)C2)c1C [Example 2550, (R)-5-((4-chloro-5-((3′-(3-(3-hydroxypyrrolidin-1-yl)propoxy)-2,2′-dimethyl-[1,1′-biphenyl]-3-yl)methoxy)-2-((methyl(oxazol-2-ylmethyl)amino)methyl)phenoxy)methyl)nicotinonitrile] | 0.5 nM
16 | Cc1c(COc2cc(OCc3cncc(C#N)c3)c(CN(C)Cc3cnco3)cc2Cl)cccc1-c1cccc(OCCCN2CC[C@@H](O)C2)c1C [Example 2551, (R)-5-((4-chloro-5-((3′-(3-(3-hydroxypyrrolidin-1-yl)propoxy)-2,2′-dimethyl-[1,1′-biphenyl]-3-yl)methoxy)-2-((methyl(oxazol-5-ylmethyl)amino)methyl)phenoxy)methyl)nicotinonitrile] | 2.7 nM
17 | Cc1c(COc2cc(OCc3cncc(C#N)c3)c(CN(C)Cc3cc(C4CC4)on3)cc2Cl)cccc1-c1cccc(OCCCN2CC[C@@H](O)C2)c1C [Example 2552, (R)-5-((4-chloro-2-((((5-cyclopropylisoxazol-3-yl)methyl)(methyl)amino)methyl)-5-((3′-(3-(3-hydroxypyrrolidin-1-yl)propoxy)-2,2′-dimethyl-[1,1′-biphenyl]-3-yl)methoxy)phenoxy)methyl)nicotinonitrile] | 7.3 nM
18 | CCc1csc(CN(C)Cc2cc(Cl)c(OCc3cccc(-c4cccc(OCCCN5CC[C@@H](O)C5)c4C)c3C)cc2OCc2cncc(C#N)c2)n1 [Example 2553, (R)-5-((4-chloro-2-((((4-ethylthiazol-2-yl)methyl)(methyl)amino)methyl)-5-((3′-(3-(3-hydroxypyrrolidin-1-yl)propoxy)-2,2′-dimethyl-[1,1′-biphenyl]-3-yl)methoxy)phenoxy)methyl)nicotinonitrile] | 30.1 nM
19 | Cc1c(COc2cc(OCc3cncc(C#N)c3)c(CN(C)Cc3nc4ccccc4s3)cc2Cl)cccc1-c1cccc(OCCCN2CC[C@@H](O)C2)c1C [Example 2554, (R)-5-((2-(((benzo[d]thiazol-2-ylmethyl)(methyl)amino)methyl)-4-chloro-5-((3′-(3-(3-hydroxypyrrolidin-1-yl)propoxy)-2,2′-dimethyl-[1,1′-biphenyl]-3-yl)methoxy)phenoxy)methyl)nicotinonitrile] | 258 nM
20 | Cc1c(COc2cc(OCc3cncc(C#N)c3)c(CNCc3nn(C)c4ccccc34)cc2Cl)cccc1-c1cccc(OCCCN2CC[C@@H](O)C2)c1C [Example 2555, (R)-5-((4-chloro-5-((3′-(3-(3-hydroxypyrrolidin-1-yl)propoxy)-2,2′-dimethyl-[1,1′-biphenyl]-3-yl)methoxy)-2-((((1-methyl-1H-indazol-3-yl)methyl)amino)methyl)phenoxy)methyl)nicotinonitrile] | 0.4 nM
21 | Cc1c(COc2cc(OCc3cncc(C#N)c3)c(CNCc3ccnn3C)cc2Cl)cccc1-c1cccc(OCCCN2CC[C@@H](O)C2)c1C [Example 2556, (R)-5-((4-chloro-5-((3′-(3-(3-hydroxypyrrolidin-1-yl)propoxy)-2,2′-dimethyl-[1,1′-biphenyl]-3-yl)methoxy)-2-((((1-methyl-1H-pyrazol-5-yl)methyl)amino)methyl)phenoxy)methyl)nicotinonitrile] | 0.8 nM
